Where “and” joins values, the source holds several entries; their conditions need not be identical. Equal values may be shown once.
How the values were obtained:
F98 glioma cells [1] = experiment: Cellular uptake of boron in F98 glioma cells (16 hours incubation, DCP atomic emission spectroscopy); format: cell-based; settings: for cellular uptake of boron at 16 hours: F98 glioma cells; for Boron Conc. /g, 16 hrs incubation: F98 Glioma Cells
Description: To illustrate the uptake and retention of the various boron-containing compounds as taught hereinabove, there were evaluated 5'-O-(o-carboran-1-ylmethyl)uridine of FIG. 1, and 3-O-(o-carboran-1-ylmethyl)-D-glucose of FIG. 2 in F98 glioma cells. The cellular uptake of boron at 16 hours for the compound of FIG. 1 was 83.8 micrograms of boron per gram of cells. The cellular uptake of boron at 16 hours for the compound of FIG. 2 was 65.2 micrograms of boron per gram of cells. […] This is an unexpected improvement in boron uptake and retention achieved by the present invention, relative to conventional Na2 B12 H11 SH.
(§1) Semiconfluent F98 glioma cells were incubated with the compound for 16 hours and after two washings with serum-free media, the cells were trypsinized, washed twice again and aliquots were analyzed for boron by Direct Current Plasma (DCP) Atomic Emission Spectroscopy. For the boron analyses there was used the following instrumentation and sample preparation for analysis:
(§2) A Spectraspan VB Direct Current Plasma-Atomic Emission Spectrometer, (Model #DCP-AES, Applied Research Laboratories, Brea, Calif.) was used for the boron determinations. This instrument combines a high resolution spectrometer with a high resolution Echelle grating and prism. The plasma source is argon gas heated to a temperature of 6000°-7000° K. The instrument settings used for analysis were: wave length 249.773 nm, argon flow 7L/min sleeve 50 psi, ceramic nebulizer 20 psi, entrance slits […], as predetermined by the manufacturer. The viewing height was […] between the arms of the "V" of the inverted "Y" configuration created by the three electrodes. The liquid uptake rate was approximately 2 mL/min. The operating power, once the plasma was established, was ^~ 40 V in the jet power supply with a 7 amp constant current output. With the operating parameters used no background correction was needed. Integration times and gain had been optimized by the manufacturer and were preset in the computer software. These particular parameters are not user alterable.
(§3) One to 2 mL of concentrated sulfuric acid, which was adequate for up to 1 g of tissue or cells, were added to 150×16 mm Pyrex culture tubes, and these were placed in a mineral oil bath, heated to 100° C. in an exhaust hood and stirred intermittently for one hour. Since no interference with the boron signal was found with the sulfuric acid-hydrogen peroxide cocktail, the amount of sulfuric acid used in digestion was determined by the ease of digestion for a particular sample, rather than by any specific ratio of sample weight to acid volume. The amount and type of tissue were critical factors for successful digestion. If the amount of tissue or cells approached 1 gram or more, there was more chance for overheating and loss of sample by bubbling. If sample size was small (<200 mg) there was more flexibility in terms of acid volume and digestion time.

F98 glioma cells [2] = experiment: Persistence (retention) of boron in F98 glioma cells; format: cell-based
Description: as §1, §2, §3
The results for cellular uptake and retention (i.e. persistence studies) for certain compounds of this invention compared to the clinically-used Na2 B12 H11 SH compound are shown in the following TABLE 1.

[3] = Incubating Media […], + approximates the blank value for cells

Row | Substance | cellular uptake of boron at 16 hours (F98 glioma cells [1]) | Persistence Studies, 12 hrs, B/g (F98 glioma cells [2]; Incubating Media […]) | Persistence Studies, 24 hrs, B/g (F98 glioma cells [2]; Incubating Media […]) | Persistence Studies, 48 hrs, B/g (F98 glioma cells [2]; 48 hrs, Incubating Media […]) | Boron Conc. /g, 16 hrs incubation (F98 glioma cells [1]; Boron Conc. in Incubating Media 13.5 µg/ml) | Persistence Studies, 12 hrs, B/g (F98 glioma cells [2]; [3]) | Persistence Studies, 24 hrs, B/g (F98 glioma cells [2]; [3]) | time to attain background levels (rapidly removed) (F98 glioma cells [2]; F98 glioma cells) | Boron Conc. /g, 16 hrs incubation (F98 glioma cells [1]; Boron Conc. in Incubating Media 14.6 µg/ml) | Boron Conc. /g, 16 hrs incubation (F98 glioma cells [1]; Boron Conc. in Incubating Media 58.0 µg/ml) | Boron Conc. /g, 16 hrs incubation (F98 glioma cells [1]; Boron Conc. in Incubating Media 116.0 µg/ml)
1 | 3-O-(o-Carborany-1-ylmethyl)-D-glucose [FIG. 2] | 65.2 micrograms of boron per gram of cells |  |  |  |  |  |  |  |  |  | 
2 | 5'-O-(o-Carboran-1-ylmethyl)uridine [FIG. 1] | 83.8 micrograms of boron per gram of cells | 23.9 B/g | 19.3 B/g | 10.5 B/g | 88.9 g⁻¹ |  |  |  |  |  | 
3 | sodium mercaptoundecahydro-closo-dodecaborane [Na2 B12 H11 SH] | about 2.0 micrograms of boron per gram of cells |  |  |  |  | 3.1 B/g and 2.8 B/g and 3.4 B/g | .4 B/g and .8 B/g and 1.8 B/g | 6 to 12 h | 4.3 g⁻¹ | 7.2 g⁻¹ | 26.7 g⁻¹
